Laboratory results reported in patent US7230094B2, “Neutral sphingomyelinase antisense ribozyme and uses thereof” (priority 2001, dated 2007).

Legend:
Assay type in all cases: cell-based, human
MG-63 cells [1] = experiment: Apoptosis by DAPI staining and counting of apoptotic cells; conditions: for Increase in apoptosis compared to untreated cells: N-SMase-deficient (ribozyme) cells treated with C2 ceramide; for Increase in apoptosis assessed by DAPI staining: sham-transfected cells
Procedure: FIG. 6 depicts a quantitative analysis of the effects of TNF-α, C2-Ceramide and Fas-ligand on apoptosis in mutant (CC) and WT (MG-63) cells, as well as wild type/mock transfected cells. Cells were grown on glass cover slips and incubated for 24 hours with TNF-α (20 ng/ml), cell-permeable ceramide (C2-Ceramide) (10 ng/ml) or Fas-L (1 ng/ml). Cells were fixed and stained with DAPI and photographed at 50× magnification. Apoptotic cells were counted using a hemocytometer. The basal levels of apoptotic cells were: MG-63 (3%); L-3 (3%); and CC (2.8%). Errors bars indicate ±S.D. (N=2).
WT (MG-63), LacZ (L-3) and mutant (CC) cells were grown on glass cover slips and incubated for 24 hr with TNF-α (20 ng/ml), cell-permeable ceramide (C2-ceramide) (10 ng/ml) or Fas-L (1 ng/ml). Cells were fixed and stained with DAPI stain and photographed (50×). Apoptotic cells were counted using a hemocytometer and compared to total cell counts per field. Basal levels of apoptosis were 3% untransfected, 3% control transfection, and 2.8% ribozyme transfection.

[2] = tested on: ceramide production by N-SMase; experiment: Ceramide level, modified diacylglycerol kinase assay; conditions: sham-transfected cells stimulated with TNF-α and Fas-L
N-SMase = experiment: TNF-α and Fas ligand induced N-SMase activity in WT and mutant cells; conditions: for N-SMase activity under cytokine stimulation: sham-transfected cells stimulated with TNF-α and Fas-L, basal 2.7
Procedure: FIGS. 4A–4B depict the effects of incubation with TNF-α (FIG. 4A) and Fas ligand (FIG. 4B) over time on the activity of N-SMase in mutant and WT cells. Confluent cultures of WT (MG-63) and mutant (CC) cells were incubated with serum free medium with or without TNF-α ([…]) or Fas ligand (1 ng/ml). At the indicated intervals, cells were harvested, centrifuged, and lysed in buffer containing 0.1% Triton™ X-100, 25 mM Tris (pH 7.4), 5 mM EDTA, 1 mM phenylmethylsulfonyl fluoride (PMSF), and 2 μg each of chymostatin, leupeptin, antipain, and pepstatin A. 100 μl of a reaction mixture containing 50 mM Tris (pH 7.4), 5 mM MgCl2, 0.05% Triton™ X-100, 5 mM dithiothreitol (DTT) and 10 nmol [^14C] sphingomyelin (100,000 cpm) was added to 5–10 μl of cell lysate (100 μg protein). The basal activity of N-SMase was 2.7±0.1 nmol/mg protein/hr in MG63 cells and 0.67±0.1 nmol/mg protein/hr in CC cells. These levels were defined as 100% activity. Error bars indicate ±S.D. (N=3).
Tumor necrosis factor alpha (TNF-α) is known to induce programmed cell death through stimulation of sphingomyelinase activity and generation of ceramide. This example describes the ability of the ribozyme directed against N-SMase to inhibit this pathway. The effects of incubation with TNF-α and Fas ligand over time on the activity of N-SMase in mutant and WT cells are shown in FIGS. 4A and 4B, respectively. Confluent cultures of WT (MG-63) and mutant (CC) cells were incubated with serum free medium with or without TNF-α ([…]) or Fas ligand (1 ng/ml), and the activity of N-SMase was determined by measuring the cleavage of [^14C]sphingomyelin. At 0, 10, 20, 30, 40, 50, and 60 minutes, cells were harvested, centrifuged, and lysed in buffer containing 0.1% Triton™ X-100, 25 mM Tris (pH 7.4), 5 mM EDTA, 1 mM phenylmethylsulfonyl fluoride (PMSF), and 2 μg each of chymostatin, leupeptin, antipain, and pepstatin A. 100 μl of a reaction mixture containing 50 mM Tris (pH 7.4), 5 mM MgCl2, 0.05% Triton™ X-100, 5 mM dithiothreitol (DTT) and 10 nmol [^14C]sphingomyelin (100,000 cpm) was added to 5–10 μl of cell lysate (100 μg protein). The basal activity of N-SMase was 2.7±0.1 nmol/mg protein/hr in MG63 cells and 0.67±0.1 nmol/mg protein/hr in CC cells. These levels were defined as 100% activity.

[3] = tested on: caspase-3 and cytochrome-C release; experiment: Caspase-3 and cytochrome-C release by western analysis and densitometry; conditions: control (sham-transfected) cells
Procedure: In order to determine a dose-response relationship between the concentration of TNF-α or FasL and apoptosis, western analysis was used to quantitate release of both caspase-3 (FIG. 9) and cytochrome-C (FIG. 10).
Immunoblots for the measurement of cytochrome-C and caspase-3 were carried out after incubation of cells with TNF-α (10 ng/ml) or FasL (1 ng/ml) for 48 hours. Cells were extracted with a buffer (20 mM Hepes pH 7.5, 10 mM KCl, 1.5 mM MgCl2, 5 mM EDTA, 5 mM DTT, 2 mM phenylmethylsulfonylfluoride, 1% NonidetP40, 0.5% sodium deoxycholate, 0.1% SDS, 2 μg/ml leupeptin, 2 μg/ml aprotinin, 0.5 μg/ml benzamindine, and 250 mM sucrose) on ice for 30 minutes. After centrifugation for 10 minutes at 10,000×g, the supernatant was used for western analysis with an antibody for cytochrome-C (Pharmingen, San Diego, Calif.). For assessment of caspase-3, samples were similarly processed in addition to passage through a 21-g needle prior to centrifugation. The western analysis was performed with a rabbit polyclonal IgG antibody to caspase-3 (Santa Cruz, Calif.) raises against an epitope corresponding to amino acids 1–277, representing the full-length precursor form of CPP-32 (caspase-3). For both caspase-3 and cytochrome-C, bands were quantified with densitometric analysis.

MG-63 cells [4] = experiment: Cell viability by trypan blue staining; conditions: control cells, TNF-α in various concentrations, 24 hours
Procedure: FIG. 8 depicts the effect of TNF-α on viability of wild type, ribozyme transfected and wild type/mock transfected cells. Cells ([…]) were seeded in 96 well sterile plastic trays. Upon confluence medium was replaced with serum free minimum essential medium and TNF-α (20 ng/ml). After incubation for 24 h at 37° C., viability of cells were determined by Trypan blue staining. The results represent ±S.D. of three experiments.
The population of viable cells was determined using trypan blue staining. Cells (10^4) were seeded in 96 well plates. Twenty-four hours later, the media was replaced with serum-free MEM, and TNF-α in various concentrations was added. After incubation for 24 hours at 37° C., the cells were trypsinized, and viable cells were counted after staining with trypan blue. Values were compared to the original cell count (10^4) and expressed as a percentage.

| Molecule | Increase in apoptosis compared to untreated cells (MG-63 cells [1]) | Increase in apoptosis compared to untreated cells (MG-63 cells [1]; listed as C2-ceramide) | Increase in ceramide production [2] | DAPI staining (MG-63 cells [1]; control-transfected cells, TNF-α 20 ng/ml for 24 hours, compared to untransfected cells) [%] | Increase in apoptosis assessed by DAPI staining (MG-63 cells [1]) | Peak N-SMase activity relative to unstimulated cells (N-SMase; control transfected clones, 10 minutes after addition of TNF-α) [%] | N-SMase activity under cytokine stimulation (N-SMase) [nmol/mg protein/hr] | Dose-response of caspase-3 and cytochrome-C release [3] | Decline in population of viable cells (MG-63 cells [4]) |
| --- | --- | --- | --- | --- | --- | --- | --- | --- | --- |
| CCCCCCCCCCCCC/C=C/[C@@H](O)[C@H](CO)NC(C)=O [C2 ceramide] | about 2.5 fold | greater than two-fold increase |  |  |  |  |  |  |  |
| Tumor necrosis factor alpha [TNF-α, reference compound] |  |  | about 2 fold | 490 | about 4 fold | 140 | 4.0 | linear dose-response relationship | prompt decline |
| Fas ligand: ligand for Fas/Apo-1 (CD95), used as apoptosis agonist [reference compound] |  |  | about 2 fold |  | about 4 fold |  | 4.0 | linear dose-response relationship |  |
